Experiment [1] concerns mouse leukemic cells L1210. As to conditions: earlier work, U.S. Pat. No. 4,966,918; cited from earlier work.
The subject of experiment [2] is mouse leukemia L1210 cells. The experiment is described as follows: Inhibitory activity against growth of mouse leukemia L1210 cells in vitro. It is filed as cell-based.
A further experiment deals with L1210 cells. In words: In vivo antileukemic effect (increased life span) in female BDF1 mice inoculated with L1210 cells. As to the method: On the other hand, the corresponding methyl carbamate ester IVc gave good ILS values of 71% and >250% at the dose levels of 100 and 200 mg/kg, respectively.
The subject of another experiment is DNA. As to conditions: Denny and Wakelin, Cancer Res., 46:1717 (1986); cited from earlier work.
The test system of the next experiment is topoisomerse II. As to conditions: Nelson et al. 1984; Pommier et al. 1984; cited from earlier work.
Where [3] appears, read: Table 6, acridine derivatives of formula III, growth of mouse leukemia L1210 cells, read-out: IC50.
Setting [4] is: Table 7, carbamate esters of formula IV, mouse L1210 cells in vitro, read-out: IC50.

Read-outs that look alike come from different tables or passages of the source. Bounds are passed on as bounds.

Take `Cc1cc(O)c2c(c1)C(=O)c1cccc(O)c1C2=O` [Compound 1A, chrysophanol]: the “activity against mouse leukemic cells L1210 in tissue culture” value (“activity” for short) in experiment [1] is “practically inactive”. As to `Cc1cc(O)c2c(c1)C(=O)c1cc(O)cc(O)c1C2=O` [Compound 1B, emodin], in experiment [1], the “activity” value is “practically inactive”. As for `O=C1c2cccc(O)c2C(=O)c2c(O)cc(CN(CCCl)CCCl)cc21` [Compound 3A, 3-[N,N-bis(2-chloroethyl)-amino]methyl-1,8-dihydroxy-9,10-anthraquinone], in experiment [1], the “activity” value is listed as “potent inhibitory activity”. `COc1cc(O)c2c(c1)C(=O)c1cc(CN(CCCl)CCCl)cc(O)c1C2=O` [Compound 3B]: the “activity” value in experiment [1] is listed as “potent inhibitory activity”. Usually IC50 stands for the point on the concentration scale where inhibition reaches its midpoint. Take `OCc1ccccc1Nc1c2ccccc2nc2ccccc12` [IIIa, 9-(2'-Hydroxymethyl)anilinoacridine]: the IC50 in experiment [2] (setting [3]) was found to be 43000 nM.

As for `OCc1cccc(Nc2c3ccccc3nc3ccccc23)c1` [IIIb, 9-(3'-Hydroxymethyl)anilinoacridine], the IC50 in experiment [2] (setting [3]) is 14 nM. Consider `OCc1ccc(Nc2c3ccccc3nc3ccccc23)cc1` [IIIc, 9-(4'-Hydroxymethyl)anilinoacridine], for which the half-maximal inhibitory concentration (IC50) amounted to 95 nM in experiment [2] (Mus musculus, L1210, quoted in text from Table 6, read-out: IC50 value) and 95 nM in experiment [2] (setting [3]). Also, in the experiment with L1210 cells (100 and 150 mg/kg dose level, female BDF1 mice inoculated with 1.0×10^6 L1210 cells), the “ILS (increased life span)” value stood at 29%. `OCCc1ccccc1Nc1c2ccccc2nc2ccccc12` [IIId]: the IC50 in experiment [2] (setting [3]) stood at 6500 nM. Regarding `OCCc1cccc(Nc2c3ccccc3nc3ccccc23)c1` [IIIe], the IC50 in experiment [2] (setting [3]) was determined as 6.2 nM.

Take `OCCc1ccc(Nc2c3ccccc3nc3ccccc23)cc1` [IIIf]: the IC50 in experiment [2] (setting [3]) came out at 9.9 nM. Still for that read-out and setting: under `Cc1ccc2nc3ccccc3c(Nc3cccc(CO)c3)c2c1` [IIIg, 9-(3'-Hydroxymethyl)anilino-2-methylacridine] stands 850 nM; under `Cc1ccc2c(Nc3cccc(CO)c3)c3ccccc3nc2c1` [IIIh, 9-(3'-Hydroxymethyl)anilino-3-methylacridine], 0.39 nM. Still for that read-out and setting: the same measure for `COc1ccc2nc3ccccc3c(Nc3cccc(CO)c3)c2c1` [IIIi, 9-(3'-Hydroxymethyl)anilino-2-methoxyacridine]: 3500 nM. Take `COc1ccc2c(Nc3cccc(CO)c3)c3ccccc3nc2c1` [IIIj, 9-(3'-Hydroxymethyl)anilino-3-methoxyacridine]: in experiment [2] (setting [3]), the IC50 worked out at 0.063 nM. On the same count and under the same terms, the same measure for `COc1ccc2nc3ccc(C)cc3c(Nc3cccc(CO)c3)c2c1` [IIIk, 9-(3'-Hydroxymethyl)anilino-2-methoxy-7-methylacridine]: 5800 nM; for `COc1ccc2nc3cc(C)ccc3c(Nc3cccc(CO)c3)c2c1` [IIIl, 9-(3'-Hydroxymethyl)anilino-2-methoxy-6-methylacridine]: 920 nM; for `COc1ccc2nc3ccc(OC)cc3c(Nc3cccc(CO)c3)c2c1` [IIIm, 9-(3'-Hydroxymethyl)anilino-2,7-dimethoxyacridine]: 3400 nM. On the same count and under the same terms, under `COc1ccc2c(Nc3cccc(CCO)c3)c3ccccc3nc2c1` [IIIn, 9-[3'-(β-hydroxyethyl)anilino]-3-methoxyacridine] stands 0.023 nM; under `Cc1ccc2nc3ccccc3c(Nc3ccc(CO)cc3)c2c1` [IIIo, 9-(4'-Hydroxymethyl)anilino-2-methylacridine], 120 nM. Still for that read-out and setting: the same measure for `Cc1ccc2c(Nc3ccc(CO)cc3)c3ccccc3nc2c1` [IIIp, 9-(4'-Hydroxymethyl)anilino-3-methylacridine]: 6.7 nM; for `COc1ccc2nc3ccccc3c(Nc3ccc(CO)cc3)c2c1` [IIIq, 9-(4'-Hydroxymethyl)anilino-2-methoxyacridine]: 620 nM; for `COc1ccc2c(Nc3ccc(CO)cc3)c3ccccc3nc2c1` [IIIr, 9-(4'-Hydroxymethyl)anilino-3-methoxyacridine]: 29 nM.

Take `COc1ccc2nc3ccc(C)cc3c(Nc3ccc(CO)cc3)c2c1` [IIIs, 9-(4'-Hydroxymethyl)anilino-2-methoxy-7-methylacridine]: the IC50 in experiment [2] (setting [3]) was found to be 58 nM. Regarding `COc1ccc2nc3cc(C)ccc3c(Nc3ccc(CO)cc3)c2c1` [IIIt, 9-(4'-Hydroxymethyl)anilino-2-methoxy-6-methylacridine], the IC50 in experiment [2] (setting [3]) turned out to be 650 nM. Still for that read-out and setting: under `COc1ccc2nc3ccc(OC)cc3c(Nc3ccc(CO)cc3)c2c1` [IIIu, 9-(4'-Hydroxymethyl)anilino-2,7-dimethoxyacridine] stands 3400 nM.

`COc1ccc2c(Nc3ccc(CCO)cc3)c3ccccc3nc2c1` [IIIv]: the IC50 in experiment [2] (setting [3]) was found to be 18 nM. In the case of `COc1ccc2nc3ccc(OC)cc3c(Nc3ccc(CCO)cc3)c2c1` [IIIw], the IC50 in experiment [2] (setting [3]) amounted to 690 nM. In the case of `CNC(=O)OCc1ccccc1Nc1c2ccccc2nc2ccccc12` [IVa, 9-[2'-(Methylaminocarbonyloxymethyl)anilino]acridine], in experiment [2] (setting [4]), the IC50 turned out to be 8400 nM.

For `CC(C)NC(=O)OCc1ccccc1Nc1c2ccccc2nc2ccccc12` [IVb, 9-[2'-(Isopropylaminocarbonyloxymethyl)anilino]acridine], the IC50 in experiment [2] (setting [4]) is 9300 nM. Regarding `CNC(=O)OCc1cccc(Nc2c3ccccc3nc3ccccc23)c1` [IVc, 9-[3'-(Methylaminocarbonyloxymethyl)anilino]acridine], the IC50 in experiment [2] (setting [4]) worked out at 4600 nM. The “ILS (increased life span)” value is recorded as 71% in the experiment on L1210 cells (100 mg/kg, mice inoculated with 1.0×10^6 L1210 cells) and over 250% in the experiment on L1210 cells (200 mg/kg, mice inoculated with 1.0×10^6 L1210 cells). For `CC(C)NC(=O)OCc1cccc(Nc2c3ccccc3nc3ccccc23)c1` [IVd, 9-[3'-(Isopropylaminocarbonyloxymethyl)anilino]acridine], in experiment [2] (setting [4]), the IC50 worked out at 9.1 nM. As for `CNC(=O)OCc1ccc(Nc2c3ccccc3nc3ccccc23)cc1` [IVe, 9-[4'-(Methylaminocarbonyloxymethyl)anilino]acridine], in experiment [2] (setting [4]), the IC50 stood at 38 nM. As for `CC(C)NC(=O)OCc1ccc(Nc2c3ccccc3nc3ccccc23)cc1` [IVf, 9-[4'-(Isopropylaminocarbonyloxymethyl)anilino]acridine], the IC50 in experiment [2] (setting [4]) amounted to 18 nM.

On to `CNC(=O)OCCc1cccc(Nc2c3ccccc3nc3ccccc23)c1` [IVg, 9-[3'-(β-Methylaminocarbonyloxyethyl)anilino]acridine], for which the IC50 in experiment [2] (setting [4]) stood at 5700 nM. Regarding `CC(C)NC(=O)OCCc1cccc(Nc2c3ccccc3nc3ccccc23)c1` [IVh, 9-[3'-(β-Isopropylaminocarbonyloxyethyl)anilino]acridine], the IC50 in experiment [2] (setting [4]) amounted to 0.91 nM. With `CNC(=O)OCCc1ccc(Nc2c3ccccc3nc3ccccc23)cc1` [IVi, 9-[4'-(β-Methylaminocarbonyloxyethyl)anilino]acridine], in experiment [2] (setting [4]), the IC50 came to 3.9 nM. On to `CC(C)NC(=O)OCCc1ccc(Nc2c3ccccc3nc3ccccc23)cc1` [IVj, 9-[4'-(β-Isopropylaminocarbonyloxyethyl)anilino]acridine], for which the IC50 in experiment [2] (setting [4]) was 48 nM. The same measure, in the same setting: the same measure for `CNC(=O)OCc1cccc(Nc2c3ccccc3nc3cc(OC)ccc23)c1` [IVk, 9-[3'-(Methylaminocarbonyloxymethyl)anilino]-3-methoxyacridine]: 1700 nM; for `COc1ccc2c(Nc3cccc(COC(=O)NC(C)C)c3)c3ccccc3nc2c1` [IVl, 9-[3'-(Isopropylaminocarbonyloxymethyl)anilino]-3-methoxyacridine]: 890 nM. `CNC(=O)OCc1cccc(Nc2c3cc(OC)ccc3nc3ccc(OC)cc23)c1` [IVm, 9-[3'-(Methylaminocarbonyloxymethyl)anilino]-2,7-dimethoxyacridine]: the IC50 in experiment [2] (setting [4]) amounted to 5000 nM.

Consider `COc1ccc2nc3ccc(OC)cc3c(Nc3cccc(COC(=O)NC(C)C)c3)c2c1` [IVn, 9-[3'-(isopropylaminocarbonyloxymethyl)-anilino]-2,7-dimethoxyacridine], for which the IC50 in experiment [2] (setting [4]) was determined as 4000 nM. Still for that read-out and setting: the same measure for `CNC(=O)OCc1ccc(Nc2c3cc(OC)ccc3nc3ccc(OC)cc23)cc1` [IVo, 9-[4'-(Methylaminocarbonyloxymethyl)anilino]-2,7-dimethoxyacridine]: 3600 nM; for `COc1ccc2nc3ccc(OC)cc3c(Nc3ccc(COC(=O)NC(C)C)cc3)c2c1` [IVp, 9-[4'-(Isopropylaminocarbonyloxymethyl)anilino]-2,7-dimethoxyacridine]: 6600 nM.

Turning to `COc1cc(NS(C)(=O)=O)ccc1Nc1c2ccccc2nc2ccccc12` [amsacrin], in the experiment with DNA, the “intercalation into DNA” value was “reversible”. The “DNA cleavage mediated by topoisomerse II” value in the experiment with topoisomerse II is on record as “appears to induce DNA cleavage”.

The values are drawn from patent US5229395A, “Potential anticancer agents derived from acridine” (Sloan-Kettering Institute For Cancer Research, priority 1991, dated 1993).
